Laboratory results taken from US11072588B2, “Barbituric acid derivatives comprising cationic and lipophilic groups” (UNIVERSITETET I TROMSØ—NORGES ARKTISKE UNIVERSITET, priority 2017, dated 2021).
≈ marks a conversion by molar mass, not a printed value. Read-outs that look alike come from different tables or passages of the source.

Legend:
E. faecium 50901530 = assay: MIC, multi-resistant clinical isolate; type: cell-based, Enterococcus faecium; settings: for MIC: Enterococcus faecium, read-out: Antimicrobial activity (MIC); for selectivity index (EC50/MIC): RBC EC50 / MIC
Procedure: (§1) Working solutions of the test derivatives were prepared with up to 100% DMSO and stored at −20° C. If necessary, the solutions were heated to 40-80° C. before testing to facilitate complete dissolution. Double-distilled water was used in all dilutions prepared. […] A microdilution susceptibility test was used for MIC determination according to Clinical and Laboratory Standards Institute, “Methods for Dilution Antimicrobial Sisceptibility Tests for Bacteria That Graw Aerobically”, Approved Standard M07-A9, edition 2012, with modifications as described by Igumnova et al (Bioorg Med Chem, 2016, 24 (22), 5884-5894).
(§2) Briefly, the bacterial inoculum was adjusted to approximately 2.5-3×10^4 cells/mL in Mueller-Hinton broth (MHB, Difco Laboratories, USA), and incubated in a ratio of 1:1 with test derivatives in polystyrene 96-well flat-bottom microplates (NUNC, Roskilde, Denmark). Positive growth control (without test derivatives) and negative control (without bacteria) were included. The reference antibiotic was oxytetracycline hydrochloride (Sigma Aldrich, Saint Louis, Mo., USA). The microplates were incubated in an EnVision microplate reader (Perkin-Elmer, Turku, Finland) placed in an incubator set to 35° C. for 48 h. The MIC value was defined as the lowest concentration of derivative resulting in no bacterial growth as determined by OD600 measurement. All derivatives were tested in three parallels.
(§3) The MIC was determined as explained above with some exceptions; working solutions of test derivatives were prepared from concentrated DMSO stocks stored at room temperature, the density of the bacterial inoculum was increased 40× to 1-1.2×10^6 cells/mL, enterococci were incubated in Brain Heart Infusion broth (BHIB, Difco Laboratories, USA), the microplates were incubated for 24 h, and the derivatives were tested in four parallels.

E. faecium K36-18 = assay: MIC, multi-resistant clinical isolate; type: cell-based, Enterococcus faecium; settings: for MIC: Enterococcus faecium, K3618, read-out: Antimicrobial activity (MIC); for selectivity index (EC50/MIC): RBC EC50 / MIC, E. faecium K36-18
Procedure: as §1, §2, §3

E. faecium 50673722 = assay: MIC, multi-resistant clinical isolate; type: cell-based, Enterococcus faecium; settings: for MIC: Enterococcus faecium, read-out: Antimicrobial activity (MIC); for selectivity index (EC50/MIC): RBC EC50 / MIC
Procedure: as §1, §2, §3

E. faecium TUH50-22 = assay: MIC, multi-resistant clinical isolate; type: cell-based, Enterococcus faecium; settings: for MIC: Enterococcus faecium, TUH5022, read-out: Antimicrobial activity (MIC); for selectivity index (EC50/MIC): RBC EC50 / MIC
Procedure: as §1, §2, §3

E. faecium 50758899 = assay: MIC, multi-resistant clinical isolate; type: cell-based, Enterococcus faecium; settings: for MIC: Enterococcus faecium, read-out: Antimicrobial activity (MIC); for selectivity index (EC50/MIC): RBC EC50 / MIC
Procedure: as §1, §2, §3

S. epidermidis = assay: Anti-biofilm activity (inhibition of biofilm formation); type: cell-based; settings: Staphylococcus epidermidis, read-out: Anti-biofilm IC50
P. aeruginosa 50692172 = assay: MIC, multi-resistant clinical isolate; type: cell-based, Pseudomonas aeruginosa; settings: for MIC: Pseudomonas aeruginosa, read-out: Antimicrobial activity (MIC); for selectivity index (EC50/MIC): RBC EC50 / MIC
Procedure: as §1, §2, §3

P. aeruginosa K44-24 = assay: MIC, multi-resistant clinical isolate; type: cell-based, Pseudomonas aeruginosa; settings: for MIC: Pseudomonas aeruginosa, K4424, read-out: Antimicrobial activity (MIC); for selectivity index (EC50/MIC): RBC EC50 / MIC
Procedure: as §1, §2, §3

P. aeruginosa K34-73 = assay: MIC, multi-resistant clinical isolate; type: cell-based, Pseudomonas aeruginosa; settings: for MIC: Pseudomonas aeruginosa; for selectivity index (EC50/MIC): RBC EC50 / MIC
Procedure: as §1, §2, §3

P. aeruginosa 50692520 = assay: MIC, multi-resistant clinical isolate; type: cell-based, Pseudomonas aeruginosa; settings: for MIC: Pseudomonas aeruginosa, read-out: Antimicrobial activity (MIC); for selectivity index (EC50/MIC): RBC EC50 / MIC
Procedure: as §1, §2, §3

P. aeruginosa K34-7 = assay: MIC, multi-resistant clinical isolate; type: cell-based, Pseudomonas aeruginosa; settings: for MIC: Pseudomonas aeruginosa, K347, read-out: Antimicrobial activity (MIC); for selectivity index (EC50/MIC): RBC EC50 / MIC, P. aeruginosa K34-7
Procedure: as §1, §2, §3

[1] = system: Staphylococcus aureus ATCC 9144; assay: MIC assay, antibiotic susceptible reference strain; type: cell-based; settings: Staphylococcus aureus, ATCC9144, read-out: Antimicrobial activity (MIC) S. a
Procedure: as §1, §2

[2] = system: Escherichia coli ATCC 25922; assay: MIC assay, antibiotic susceptible reference strain; type: cell-based; settings: Escherichia coli, ATCC25922, read-out: Antimicrobial activity (MIC) E. c
Procedure: as §1, §2

[3] = system: Corynebacterium glutamicum ATCC 13032; assay: MIC assay, antibiotic susceptible reference strain; type: cell-based; settings: Corynebacterium glutamicum, ATCC13032, read-out: Antimicrobial activity (MIC) C. g
Procedure: as §1, §2

[4] = system: Pseudomonas aeruginosa PA01, DSM 19880 (ATCC 15692); assay: MIC assay, antibiotic susceptible reference strain; type: cell-based; settings: Pseudomonas aeruginosa, read-out: Antimicrobial activity (MIC) P. a
Procedure: as §1, §2

[5] = system: panel of 30 multi-resistant clinical isolates of Gram-positive and Gram-negative bacteria; assay: MIC screening, ranges over the panel of clinical isolates; type: cell-based
Procedure: as §1, §2, §3

E. coli 50639799 = assay: MIC, multi-resistant clinical isolate; type: cell-based, Escherichia coli; settings: for MIC: Escherichia coli, read-out: Antimicrobial activity (MIC); for selectivity index (EC50/MIC): RBC EC50 / MIC
Procedure: as §1, §2, §3

E. coli 50857972 = assay: MIC, multi-resistant clinical isolate; type: cell-based, Escherichia coli; settings: for MIC: Escherichia coli, read-out: Antimicrobial activity (MIC); for selectivity index (EC50/MIC): RBC EC50 / MIC
Procedure: as §1, §2, §3

K. pneumoniae 50625602 = assay: MIC, multi-resistant clinical isolate; type: cell-based, Klebsiella pneumoniae; settings: for MIC: Klebsiella pneumoniae, read-out: Antimicrobial activity (MIC); for selectivity index (EC50/MIC): RBC EC50 / MIC
Procedure: as §1, §2, §3

K. pneumoniae K66-45 = assay: MIC, multi-resistant clinical isolate; type: cell-based, Klebsiella pneumoniae; settings: for MIC: Klebsiella pneumoniae, K6645, read-out: Antimicrobial activity (MIC); for selectivity index (EC50/MIC): RBC EC50 / MIC, K. pneumoniae K66-45
Procedure: as §1, §2, §3

K. pneumoniae K47-25 = assay: MIC, multi-resistant clinical isolate; type: cell-based, Klebsiella pneumoniae; settings: for MIC: Klebsiella pneumoniae, K4725, 24 h, read-out: Antimicrobial activity (MIC)
Procedure: as §1, §2, §3

K. pneumoniae 50667959 = assay: MIC, multi-resistant clinical isolate; type: cell-based, Klebsiella pneumoniae; settings: for MIC: Klebsiella pneumoniae, read-out: Antimicrobial activity (MIC); for selectivity index (EC50/MIC): RBC EC50 / MIC
Procedure: as §1, §2, §3

K. pneumoniae 50531633 = assay: MIC, multi-resistant clinical isolate; type: cell-based, Klebsiella pneumoniae; settings: K. pneumoniae 50531633, resistant to colistin; for MIC: Klebsiella pneumoniae, 24 h, read-out: Antimicrobial activity (MIC); for selectivity index (EC50/MIC): RBC EC50 / MIC
Procedure: as §1, §2, §3

Row | Structure (SMILES) | MIC (E. faecium 50901530) [µg/mL] | selectivity index (EC50/MIC) (E. faecium 50901530) | MIC (E. faecium K36-18) [µg/mL] | selectivity index (EC50/MIC) (E. faecium K36-18) | MIC (E. faecium 50673722) [µg/mL] | selectivity index (EC50/MIC) (E. faecium 50673722) | MIC (E. faecium TUH50-22) [µg/mL] | selectivity index (EC50/MIC) (E. faecium TUH50-22) | MIC (E. faecium 50758899) [µg/mL] | selectivity index (EC50/MIC) (E. faecium 50758899) | IC50 (S. epidermidis) [µg/mL] | MIC (P. aeruginosa 50692172) [µg/mL] | selectivity index (EC50/MIC) (P. aeruginosa 50692172) | MIC (P. aeruginosa K44-24) [µg/mL] | selectivity index (EC50/MIC) (P. aeruginosa K44-24) | selectivity index (EC50/MIC) (P. aeruginosa K34-73; P. aeruginosa K34-73) | MIC (P. aeruginosa 50692520) [µg/mL] | selectivity index (EC50/MIC) (P. aeruginosa 50692520) | MIC (P. aeruginosa K34-7) [µg/mL] | selectivity index (EC50/MIC) (P. aeruginosa K34-7) | other results
1 | NCCCCN1C(=O)N(CCCCN)C(=O)C(Cc2ccc(F)c3ccccc23)(Cc2ccc(F)c3ccccc23)C1=O [7(v), 1,3-bis(4-aminobutyl)-5,5-bis((4-fluoronaphtalen-1-yl)methyl)pyrimidin-2,4,6(1H,3H,5H)-trione] | 4 (≈ 6.82 µM) | (40) | 8 (≈ 13.6 µM) | (20) | 8 (≈ 13.6 µM) | (20) | 4 (≈ 6.82 µM) | (40) | 8 (≈ 13.6 µM) | (20) | 4 (≈ 6.82 µM) | 16 (≈ 27.3 µM) | (10) | 32 (≈ 54.5 µM) | (5) | (5) | 16 (≈ 27.3 µM) | (10) | 32 (≈ 54.5 µM) | (5) | MIC (P. aeruginosa K34-73; K3473, read-out: Antimicrobial activity (MIC)): 32 µg/mL (≈ 54.5 µM); MIC [1]: 4 µg/mL (≈ 6.82 µM); MIC [2]: 16 µg/mL (≈ 27.3 µM); MIC [3]: 1 µg/mL (≈ 1.7 µM); MIC [4]: 8 µg/mL (≈ 13.6 µM); MIC ([5]; Enterococcus faecium, read-out: MIC values against the Gram-positive isolates of S. aurues and E. faecium): 4 to 16 µg/mL (≈ 6.82 to 27.3 µM); MIC (E. coli 50639799): 16 µg/mL (≈ 27.3 µM); selectivity index (EC50/MIC) (E. coli 50639799): (10); MIC (E. coli 50857972): 16 µg/mL (≈ 27.3 µM); selectivity index (EC50/MIC) (E. coli 50857972): (10); MIC (K. pneumoniae 50625602): 32 µg/mL (≈ 54.5 µM); selectivity index (EC50/MIC) (K. pneumoniae 50625602): (5); MIC (K. pneumoniae K66-45): 32 µg/mL (≈ 54.5 µM); selectivity index (EC50/MIC) (K. pneumoniae K66-45): (5); MIC (K. pneumoniae K47-25): > 32 µg/mL; MIC (K. pneumoniae 50667959): 32 µg/mL (≈ 54.5 µM); selectivity index (EC50/MIC) (K. pneumoniae 50667959): (5); MIC (K. pneumoniae 50531633): 16 µg/mL (≈ 27.3 µM); selectivity index (EC50/MIC) (K. pneumoniae 50531633): (10)
2 | N=C(N)NCCCCN1C(=O)N(CCCCNC(=N)N)C(=O)C(Cc2cc(Br)cc(Br)c2)(Cc2cc(Br)cc(Br)c2)C1=O [8(ii), 1,1′-(4,4′-(5,5-bis(3,5-dibromobenzyl)-2,4,6-trioxodihydropyrimidine-1,3(2H,4H)-diyl)bis(butane-4,1-diyl))diguanidine] | 2 (≈ 2.35 µM) | (28) | 4 (≈ 4.7 µM) | (14) | 4 (≈ 4.7 µM) | (14) | 2 (≈ 2.35 µM) | (28) | 4 (≈ 4.7 µM) | (14) | 1 (≈ 1.18 µM) | 8 (≈ 9.41 µM) | (7) | 8 (≈ 9.41 µM) | (7) | (7) | 16 (≈ 18.8 µM) | (4) | 8 (≈ 9.41 µM) | (7) | MIC (P. aeruginosa K34-73; K3473, P. aeruginosa K34-73, read-out: Antimicrobial activity (MIC)): 8 µg/mL (≈ 9.41 µM); MIC [1]: 1 µg/mL (≈ 1.18 µM); MIC [2]: 2 µg/mL (≈ 2.35 µM); MIC [3]: 0.25 µg/mL (≈ 0.294 µM); MIC [4]: 4 µg/mL (≈ 4.7 µM); MIC ([5]; read-out: MIC values against all the 30 multi-resistant clinical isolates): 2 to 16 µg/mL (≈ 2.35 to 18.8 µM); MIC (E. coli 50639799): 4 µg/mL (≈ 4.7 µM); selectivity index (EC50/MIC) (E. coli 50639799): (14); MIC (E. coli 50857972): 4 µg/mL (≈ 4.7 µM); selectivity index (EC50/MIC) (E. coli 50857972): (14); MIC (K. pneumoniae 50625602): 4 µg/mL (≈ 4.7 µM); selectivity index (EC50/MIC) (K. pneumoniae 50625602): (14); MIC (K. pneumoniae K66-45): 4 µg/mL (≈ 4.7 µM); selectivity index (EC50/MIC) (K. pneumoniae K66-45): (14); MIC (K. pneumoniae K47-25; K. pneumoniae K47-25, resistant to colistin): 4 µg/mL (≈ 4.7 µM); selectivity index (EC50/MIC) (K. pneumoniae K47-25; RBC EC50 / MIC, K. pneumoniae K47-25, resistant to colistin): (14); MIC (K. pneumoniae 50667959): 4 µg/mL (≈ 4.7 µM); selectivity index (EC50/MIC) (K. pneumoniae 50667959): (14); MIC (K. pneumoniae 50531633): 4 µg/mL (≈ 4.7 µM); selectivity index (EC50/MIC) (K. pneumoniae 50531633): (14)
